Literature values in paper PMC4726456 (Cell, 2014).

Legend:
[1] = system: cellular microtubules; conditions: ref Piperno et al., 1987; Takemura et al., 1992
[2] = system: tubulin; conditions: ref Mulder et al., 2009

Molecule | Effect on microtubule acetylation levels in cells [1] | Induction of tubulin rings [2]
CC(=O)O[C@H]1C(=O)[C@@]2(C)[C@H]([C@H](OC(=O)c3ccccc3)[C@]3(O)C[C@H](OC(=O)[C@H](O)[C@@H](NC(=O)c4ccccc4)c4ccccc4)C(C)=C1C3(C)C)[C@]1(OC(C)=O)CO[C@@H]1C[C@@H]2O [taxol] | increases acetylation levels | 
Dolastatin-10 |  | induces tubulin rings by curving individual protofilaments
